Numbers after ± are expanded uncertainties.

Results on three compounds are retold here after the NIST ThermoML archive (doi:10.1021/je9004382).

For series [1] the following is noted: Crystal; DTA.
Series [2] can be described thus: Molar enthalpy of transition or fusion. The note with it: Crystal; Adiabatic calorimetry.

Take `COC(=O)C=Cc1ccc(O)cc1` [2-propenoic acid, 3-(4-hydroxyphenyl)-, methyl ester]: in series [1], the Normal melting temperature was found to be 137.56 ± 1.1 °C. For the same compound, in series [2], the “Molar enthalpy of transition or fusion” value is 7.22 ± 0.43 kcal/mol.
Regarding `COC(=O)/C=C/c1cc(OC)c(O)c(OC)c1` [3,5-dimethoxy-4-hydroxy cinnamic acid methyl ester], the Normal melting temperature in series [1] worked out at 88.64 ± 1.2 °C. In addition, the “Molar enthalpy of transition or fusion” value in series [2] is 7.14 ± 0.669 kcal/mol.
As for `COC(=O)C=Cc1ccc(O)c(OC)c1` [methyl 3-(4-hydroxy-3-methoxyphenyl)-2-propenoate], the Normal melting temperature in series [1] amounted to 62.56 ± 0.95 °C. In series [2], the “Molar enthalpy of transition or fusion” value was 6.17 ± 0.43 kcal/mol.
